In the assay the target is T1, MyD88^TIR (Homo sapiens, UniProt Q99836).
T1 construct: MyD88 (residues 148–296); 6xHis; made in house; host or cells: E. coli BL21 (DE3)
The experiment in a line: T‐Surf phage library (P8 and P3) selection against MyD88^TIR, four rounds, NGS read counts. In kind it is binding. The note with it: for P8_MyD88 Rank (after) / P8_MyD88 Rank (before): P8 library; for P3_MyD88 Rank (after) / P3_MyD88 Rank (before): P3 library; for Population: 4th round of selection against MyD88 TIR, share of NGS reads. The protocol:
T‐Surf libraries were screened against the immobilized TIR domains of two major human TLR adaptor proteins, MAL^TIR and MyD88^TIR, allowing cross‐species selection of TIR‐binding motifs with 190 946 TIR‐derived peptides in a single binding assay (Scheme 1). Enriched phage pools from the fourth round of selection were analyzed using NGS after barcoding the peptide‐coding regions of the phage pools.
Phage display screening was performed by coating two wells of a 96‐well plate (Maxisorp, Thermo Fisher Scientific) with 100 µL of 5 µg mL^−1 TIR domains overnight; then, the coated wells were blocked with 200 µL of blocking buffer (0.2% BSA in PBS) and set aside for 1 h at 4 °C with gentle shaking. Next, 100 µL of the phage library was added to the wells and incubated for 1 h at room temperature (RT; 20 – 22 °C) with gentle shaking. The plate was washed four times with PBS containing 0.5% Tween‐20; the bound phages were eluted by adding 100 µL of 100 mM HCl to each well. The elute was neutralized with 10 µL of 1.0 M Tris‐HCl (pH 11.0). E. coli TG1 cells were grown to the log phase (A600 = ≈0.6), and 1 mL of the culture was incubated with 100 µL of the eluted phages for 30 min at 37 °C, with shaking at 200 rpm. Next, 1 µL of M13KO7 helper phages was added, followed by incubation for 45 min at 37 °C, with shaking. Subsequently, the cells were transferred to 25 mL of 2× yeast extract tryptone/carbenicillin/kanamycin medium and incubated overnight at 37 °C with shaking at 200 rpm. The amplified phages were precipitated with 20% PEG‐8000/2.5 M NaCl to be used for the next round of selection.
The naïve T‐Surf libraries in P8 and P3 and the enriched phage pools after four rounds were barcoded for NGS as previously described.^[ [59] ^] Briefly, 5 µL of the phage pool was used as a template for 20 cycles of a 50 µL PCR reaction using […] each of forward and reverse barcoded primers and PrimeSTAR Max DNA Polymerase. The PCR products were purified using Expin Gel SV (GeneAll). The NGS samples were quantified using qPCR, following the qPCR Quantification Protocol Guide (KAPA Library Quantification kits for Illumina Sequencing Platform), and qualified using the TapeStation High Sensitivity D1000 ScreenTape (Agilent Technologies). The indexed libraries were further sequenced by Macrogen (Seoul, Republic of Korea) using the NovaSeq platform (Illumina) with 100 bp paired‐end reads. The reads were demultiplexed by barcodes and filtered for an average Phred quality score of at least 30, followed by trimming the flanking consensus sequences using Cutadapt (version 2.3). Peptide sequence populations were analyzed according to the read counts.

The mark [1] stands for this setting: P8_MyD88: rank by count after grouping.
Setting [2] is: P8_MyD88: rank by count before grouping.
Setting [3] is: selection against MyD88 TIR, rank by count after grouping.
The mark [4] stands for this setting: selection against MyD88 TIR, rank by count before grouping.
Where [5] appears, read: selection against MyD88, rank by count after grouping.
Setting [6] is: selection against MyD88, rank by count before grouping.
[7] abbreviates: P3_MyD88: rank by count after grouping.
Where [8] appears, read: P3_MyD88: rank by count before grouping.
The mark [9] stands for this setting: 4R selection against MyD88, rank after grouping.
The mark [10] stands for this setting: 4R selection against MyD88, rank before grouping.
[11] abbreviates: P8_MyD88 pool: P8 T-Surf phage library.
The mark [12] stands for this setting: P8_MyD88: rank by NGS read count after grouping.
[13] abbreviates: P8_MyD88: rank by NGS read count before grouping.

T1 sequence (Q99836 148-296): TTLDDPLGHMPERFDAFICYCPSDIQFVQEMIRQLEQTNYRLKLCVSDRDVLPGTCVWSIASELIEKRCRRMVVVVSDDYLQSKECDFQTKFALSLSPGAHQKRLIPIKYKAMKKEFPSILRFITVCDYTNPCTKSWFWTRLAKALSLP

On to AEFWERLRMTVLETME, for which, under setting [1], the “Rank (after)” value came out at 398. Besides, the “Rank (before)” value under setting [2] is recorded as 1024.
As to AFSHWALVELLEAIEQ, the “P8_MyD88 Rank (after)” value under setting [3] stood at 226. Besides, under setting [4], the “P8_MyD88 Rank (before)” value was 385.
As for AGDKGTDKIQTPLKNA, the “P3_MyD88 Rank (after)” value (selection against MyD88, rank after grouping) was 484. In addition, the “P3_MyD88 Rank (before)” value (selection against MyD88, rank before grouping) was determined as 1942.
As for AHDELWVLRYLLPTLE, the “P8_MyD88 Rank (after)” value under setting [3] is listed as 205. For the same sequence, the “P8_MyD88 Rank (before)” value under setting [4] amounted to 304.
On to ALLKKLDSGFSEEKLL, for which, under setting [3], the “P3_MyD88 Rank (after)” value amounted to 267. In addition, the “P3_MyD88 Rank (before)” value under setting [4] was determined as 1950.
APQDLEWFYERLVSLIL: the “Rank (after)” value under setting [1] is on record as 431. For the same sequence, the “Rank (before)” value under setting [2] was 2322.
As to ARFKDMIINKWRTALKERLP, the “P3_MyD88 Rank (after)” value under setting [5] worked out at 744. In addition, the “P3_MyD88 Rank (before)” value under setting [6] was 1964.
Regarding ASSPWALYELVEILTA, the “P8_MyD88 Rank (after)” value under setting [5] came to 683. Further, under setting [6], the “P8_MyD88 Rank (before)” value was found to be 2333.
For the sequence ASSSFALDQLSYFLSL, under setting [1], the “Rank (after)” value worked out at 189. Moreover, the “Rank (before)” value under setting [2] is on record as 243.
For the setting “P3_MyD88 pool: P3 T-Surf phage library”, AVAHEISKKMKIFATI yielded a Population of 0.00262%.
For the sequence AVAHEISNKMKIFATI, the “P3_MyD88 Rank (after)” value under setting [3] was 270. Further, under setting [4], the “P3_MyD88 Rank (before)” value is listed as 1888.
AVDIETEKIQTPLKNA: the “Rank (after)” value under setting [7] amounted to 157. For the same sequence, the “Rank (before)” value under setting [8] is on record as 1891.
Take AVDKETDKIQTAEKC: the “P3_MyD88 Rank (after)” value under setting [3] is given as 242. The “P3_MyD88 Rank (before)” value under setting [4] came to 924.
For the sequence AVDKETDKIQTPLEM, under setting [7], the “Rank (after)” value was 115. Moreover, the “Rank (before)” value under setting [8] was 601.
For the sequence AVDKETDKIQTPLKAQ, the “Rank (after)” value under setting [7] was 390. Under setting [8], the “Rank (before)” value came out at 1919.
AVDKGIDKIQTPLKNA: the “Rank (after)” value under setting [7] is reported as 430. Moreover, the “Rank (before)” value under setting [8] was 1896.
As to AVDKKTDKIQTPRKNA, the “Rank (after)” value under setting [7] came to 468. Besides, the “Rank (before)” value under setting [8] was 1938.
On to AVDNETDKIQTPLKNE, for which, under setting [3], the “P3_MyD88 Rank (after)” value was 231. Also, the “P3_MyD88 Rank (before)” value under setting [4] came out at 1895.
For the sequence AVEKETDKIQTPPKNA, the “Rank (after)” value under setting [7] was 173. Besides, the “Rank (before)” value under setting [8] came out at 1939.
For AVGKETNKIQTPLKNA, the “Rank (after)” value under setting [7] is on record as 177. Moreover, under setting [8], the “Rank (before)” value was 1886.
With AVVRETQKIQPQRKNA, the “Rank (after)” value under setting [7] was determined as 466. For the same sequence, the “Rank (before)” value under setting [8] is 1885.
Regarding AWIREQLRTALKERPP, the “P3_MyD88 Rank (after)” value under setting [9] was 595. In addition, under setting [10], the “P3_MyD88 Rank (before)” value was found to be 1975.
In the case of AWIWGWREALVYIGGI, the “P8_MyD88 Rank (after)” value under setting [3] was determined as 254. Also, the “P8_MyD88 Rank (before)” value under setting [4] is on record as 448.
AWTDDPVGQLFFWESL: under setting [1], the “Rank (after)” value came out at 168. Also, the “Rank (before)” value under setting [2] is on record as 189. Also, the Population under setting [11] worked out at 0.00655%.
On to AWVGDYLLPNLEGPAG, for which the “P8_MyD88 Rank (after)” value under setting [9] was found to be 672. Besides, under setting [10], the “P8_MyD88 Rank (before)” value was 2318.
In the same order, the values of AWVWEYLLPNLVGPAG are 668 and 2317.
On to AYILNFIKGNVMFEFL, for which, under setting [1], the “Rank (after)” value is recorded as 129. The “Rank (before)” value under setting [2] was 140. Under setting [11], this sequence returned a Population of 0.0116%.
As to AYSPWALDELVKIIEA, the “P8_MyD88 Rank (after)” value under setting [3] turned out to be 214. Besides, under setting [4], the “P8_MyD88 Rank (before)” value came to 303.
Consider CALCELLQILHARGLF, for which, under setting [5], the “P8_MyD88 Rank (after)” value is 725. For the same sequence, under setting [6], the “P8_MyD88 Rank (before)” value was 1345.
Consider CALDELLHILHARELF, for which the “P8_MyD88 Rank (after)” value under setting [5] was determined as 724. In addition, the “P8_MyD88 Rank (before)” value under setting [6] turned out to be 1346.
For the sequence CARDELLQILHARELF, the “Rank (after)” value under setting [12] came out at 876. Under setting [13], the “Rank (before)” value came to 1349.
For the sequence CLLLSVFQTLFARRTE, under setting [12], the “Rank (after)” value is reported as 877. For the same sequence, under setting [13], the “Rank (before)” value came out at 1353.
